This data set can be described thus: Compounding experiments, bulk solution stability in Tris buffer. It counts as physicochemical. The settings on record: 1 mg/ml, at least 24 h, room temperature. The text has this:
This is because Tris buffers effectively in the range of pH 7-9 (i.e. ±1 pH unit from pKa of 8.1). Outside of this pH range, the bulk solution is no longer buffered even with the addition of Tris. To maintain bulk solution stability, it is necessary to increase the compounding pH above 9, which is outside of the buffering range of Tris.

In the case of `COc1ccc(Cl)cc1C(=O)NCCc1ccc(S(=O)(=O)NC(=O)NC2CCCCC2)cc1` [glibenclamide, 5-chloro-N-(4-[N-(cyclohexylcarbamoyl)sulfamoyl]phenethyl)-2-methoxybenzamide], the “minimum compounding pH required to maintain bulk solution stability” value was at least 9.1.

The values above are taken from patent publication US12496306B2 (REMEDY PHARMACEUTICALS, INC., priority 2021, dated 2025).
